Assay results reported in patent US10463669B2, “Composition for treating or preventing liver cancer” (Seoul National University R&DB Foundation, priority 2016, dated 2019).

Columns and labels:
[1] = system: AKT phosphorylation in THLE-3 cells; assay: AKT phosphorylation, immunoblot assay; format: cell-based, human
Protocol: (§1) Medium was exchanged every day, and the aforementioned cells were cultured for 4 days in 300 μmol/L hydrogen peroxide (H2O2) (Sigma Aldrich; H1009). In several experiments, the cells were treated for 1 hour with 5 mmol/L N-acetylcysteine (NAC) (Sigma Aldrich; A7250), 25 μmol/L idelalisib (LC Laboratoties, Woburn, Mass., USA; I-7447), 25 μmol/L perifosine (LC Laboratoties, Woburn, Mass., USA; P-6522), or 30 μmol/L GSK3β inhibitor (GSK3β inhibitor XI) (Santa Cruz; sc-204770) (31) before adding H2O2. Furthermore, sterilized distilled water (pH 7.0) was used as a negative control (i.e., mock treatment).
(§2) Total 2×10^5 cells were boiled for 5 minutes in 2×SDS sample buffer (100 mmol/L TrisHCl [pH 6.8], 4% SDS, 0.2% bromophenol blue, 20% glycerol, and 200 mmol/L β-mercaptoethanol), and then subjected to SDS-PAGE and Western blotting. To detect the TERT, the cells were cultured in 2×SDS sample buffer for 15 minutes at 55° C. TERT-specific (1:300, Rockland Immunochemicals, Gilbertsville, Pa., USA; 600-401-252), AKT-specific (1:1000, Cell Signaling Technology; #9272), phospho-AKT-specific (1:2000, Cell Signaling Technology; #4060), GAPDH-specific (1:2000, Santa Cruz Biotechnology; sc-47724), or β-actin-specific (1:2000, Sigma-Aldrich, St. Louis, Mo., USA; A5441) antibody was diluted in 5% skim milk or bovine serum albumin with TBS-Tween 20, cultured overnight at 4° C., washed, and cultured with HRP-conjugated secondary antibody (1:1000, Abcam; ab131368, or ab131366). By using FUSION-SOLO imager (Vilber Lourmat, Marne La Vallee, France), a chemical fluorescence image was obtained.

[2] = system: TERT expression in HCC cell lines (Huh7 and Hep3B); assay: TERT expression, quantitative real time-PCR and immunoblot; format: cell-based, human
Protocol: as §1
(§3) PCR was carried out by using TOPrealm qPCR 2×PreMIX (SYBR Green with high ROX) (Enzynomics, Daejeon, Korea; RT501M) and ABI Prism 7300 thermal cycler (Applied Biosystems, Foster City, Calif., USA). […] To examine the primer specificity, a dissociation step was additionally included.
as §2

[3] = system: TERT expression in THLE-3 cells; assay: as above; format: cell-based, human
Protocol: as §1, §3, §2

[4] = system: telomere length in THLE-3 cells; assay: Telomere length (immunoFISH, Flow FISH, quantitative PCR); format: cell-based, human
Protocol: Flow FISH was carried out as described before (Rufer N, et al., Nat Biotechnol. 1998; 16: 743-7) with few modifications. The cells were washed twice with cold PBS (phosphate-buffered saline) solution containing 0.1% w/v bovine serum albumin (BSA). Subsequently, the cells were re-suspended in hybridization buffer (70% deionized formamide (Amresco, Solon, Ohio, USA), 20 mmol/L TrisHCl [pH 6.8], 1% BSA, and 1 nmol/L FAM-labeled telomere PNA (telomere peptide nucleic acid) probe ([…], Korea), or 1 nmol/L FAM-labeled centromere PNA probe ([…]). Volume of the hybridization buffer was adjusted to 100 μl per 10^5 cells. Next, each sample was cultured for 10 minutes in a water bath at 85° C. […] Total 15,000 to 20,000 nuclei were analyzed for the each separate culture. Telomere fluorescence intensity of the all nuclei at […] phase of the cell cycle was measured by using BD FACS Calibur flow cytometer (Becton Dickinson, Franklin Lakes, N.J., USA) in which CELLQUEST software is used. […] For quantification of the telomere fluorescence intensity, centromere fluorescence intensity, and 8-oxo-dG fluorescence intensity, the same exposure time was employed. The telomere fluorescence level and 8-oxo-dG fluorescence level of tumor tissues were calculated by division of the fluorescence level in non-tumor tissues corresponding to 5 random fields. […]

[5] = system: Huh7 cells injected to subcutaneous tissues; assay: In vivo tumorigenicity analysis (xenograft of pre-treated cells); design: species or system KSN/Slc nude mouse
Protocol: The animal test was carried out according to the protocol which has been approved by Seoul National University Institutional Animal Care and Use Committee (Approval number: SNU-130225-6). The mouse was kept under usual conditions (i.e., semi-specific pathogen-free state), and allowed to have free access to food and water. For all xenografting studies, 5-week old KSN/Slc nude mouse was used. A mouse with bodyweight of 18 g to 20 g was used for the test. For the xenografting analysis, mock-treated 1×10^5 Huh7, 1×10^5 Huh7 treated only with 300 μmol/L H2O2, and 1×10^5 Huh7 treated with both of 25 μmol/L idelalisib and 300 μmol/L H2O2 were washed, harvested in PBS not containing Ca^2+ or Mg^2+, and subsequently injected in an amount of 0.2 mL to subcutaneous tissues. According to caliper measurement of two vertical diameters of a tumor (i.e., D1 as largest diameter and D2 as smallest diameter), the tumor product was monitored every week. The tumor volume was calculated by […].
Next, an examination was made to see whether or not idelalisib can have in vivo inhibition of tumor growth.

[6] = THLE-3 cells after H2O2 treatment

SMILES | AKT phosphorylation level [1, 6] | TERT expression increased by ([2]; HCC cells treated with 300 μmol/L H2O2, compared to control HCC cells not exposed to H2O2) | TERT expression level [3, 6] | telomere length ([4]; THLE-3 cells exposed to 150 μmol/L H2O2) | latency time till tumor development ([5]; nude mouse injected with 1×10^5 HCC cells treated with H2O2) [days] | basal level AKT phosphorylation ([1]; THLE-3, idelalisib at a concentration of 25 μmol/L) | TERT expression reduced by ([2]; 300 μmol/L H2O2-treated HCC cells plus idelalisib, compared to HCC cells treated with H2O2 only) | ROS-mediated increase in the TERT expression ([2]; H2O2-treated cells) | TERT expression ([2]; two HCC cell lines, no H2O2) | TERT expression ([3]; THLE-3 cells) | telomere length ([4]; THLE-3 cells) | time without tumor formation ([5]; nude mouse injected with HCC cells treated with both 300 μmol/L H2O2 and 25 μmol/L idelalisib) [days]
OO [H2O2, hydrogen peroxide] | no change | 40%-45% | no change | reduction | 28 |  |  |  |  |  |  | 
CC[C@H](Nc1ncnc2nc[nH]c12)c1nc2cccc(F)c2c(=O)n1-c1ccccc1 [idelalisib, 5-fluoro-3-phenyl-2-[(1S)-1-(7H-purin-6-ylamino)propyl]-4(3H)-quinazolinone] |  |  |  |  |  | not reduced | 65%-70% | almost completely inhibited | reduced | not reduced | not reduced | > 70
